From patent US6211439A, “Herbicide resistance in plants” (MGI Pharma, Inc, priority 1995, dated 2001)

Experiments:
[1] = system: Black Mexican Sweet Corn cell suspension cultures; test: Growth inhibition of maize cell suspension cultures; assay type: cell-based
Method: Nonregenerable Black Mexican Sweet Corn cell suspension cultures (i.e., cell cultures which lack the ability to regenerate plants) were obtained from Dr. Burle Gengenbach, Department of Agronomy and Plant Genetics, University of Minnesota, St. Paul, Minn. Stock cell cultures were maintained in liquid Murashige and Skoog (MS) medium (Murashige and Skoog, 1962, Physiol. Plant 15: 473) containing 2 mg of 2,4-dichlorophenoxyaceticacid (2,4-D) per liter, and subcultured weekly by diluting to 1/10 the original volume with fresh medium. Cultures were grown in the dark at 26° C. in 500 ml flasks containing 125 ml media.
Growth inhibition studies were carried out in 125 ml flasks containing 30 ml of test media. 997 was filter sterilized and added to cooling media following autoclaving. Test media were innoculated with cells to give a settled cell volume (15 minutes without centrifugation) of 0.2 ml per 10 ml of suspension. After either six or seven days growth settled cell volumes were again quantitated.
To determine whether the effects of 214 were reversible, Black Mexican Sweet Corn cells growing in liquid suspension culture were exposed to 0.03 mg per liter 214 for various periods of time up to 72 hours. […] The cells were then washed with herbicide-free media and the growth rate evaluated again in the absence of herbicide.

[2] = system: XA17 seedlings homozygous for the herbicide resistance trait; test: Seedling assay, XA17 seedlings homozygous for the resistance trait; assay type: in vivo, maize
Method: (§1) Twenty control seeds and ten XA17 seeds were surface sterilized with 2.6% sodium hypochlorite for twenty minutes and then washed with sterile distilled water. The seed was imbibed overnight in sterile water containing a small quantity of the fungicide, captan (N-trichloromethylthio-4-cyclohexene-1,2-dicarboximide). The mature embryos were then excised from the seed and plated scutellum side down on solid MS media without 2,4-D. Ten control seeds were plated on media containing no 214 and ten were plated in the presence of 6×10^-8M 214 which had been incorporated into the medium after autoclaving but before gelling. All ten XA17 seeds were plated in the presence of 6×10^-8 M 214. Seedlings were evaluated seven days after plating.
(§2) XA17 seeds homozygous for the resistance trait were obtained as described in Section 6.4.6. […] Assays were conducted as described in Section 6.4.5.

[3] = system: control seedlings; test: Seedling assay, control (herbicide sensitive) seedlings; assay type: in vivo, maize
Description: Seeds to be used as controls in the heritability assay were obtained from regenerated plants from an herbicide sensitive cell line of the same genetic background as line XA17. These regenerated plants were crossed with pollen obtained from a herbicide sensitive inbred B73 plant grown from seed. Seeds were harvested approximately forty days after pollination.
as §1, §2

[4] = system: isozymes of AHAS (I, II and III); test: E. coli AHAS isozymes assayed in vitro; assay type: biochemical; conditions: millimolar concentrations
Description: Genes encoding AHAS are common to the aspartate and branched chain amino acid pathways in plants and microorganisms (Umbarger, 1978, Ann. Rev. Biochem, 47: 533-606). AHAS catalyzes the first step in the synthesis of the amino acids leucine, valine and isoleucine. AHAS activity is regulated in vivo by various end products or combination of end products of the biosynthetic pathway. AHAS genes with a variety of regulatory characteristics are available from microorganisms including, but not limited to, Escherichia coli, yeast and Neurospora. These might include AHAS genes which are naturally resistant to the imidazolinone herbicides. […] Resistance of E. coli to AC 243,997 therefore appears to be the result of an insensitive site of action as opposed to being a result of metabolism of the herbicide. Resistance in other organisms is likely to be of the same nature, providing a variety of sources of a gene encoding an herbicide resistant AHAS. The genes encoding all three E. coli isozymes have been cloned and sequenced. Selection for imidazolinone resistant mutant AHAS genes in microorganisms or plants including plant tissue cultures would provide a diverse source of genes which, when transferred to plants, produce herbicide resistant plants.

[5] = system: maize seedlings; test: Germination and seedling growth from excised mature maize embryos; assay type: in vivo; conditions: concentration in the media, shoot growth after seven days
Method: The herbicidal effects of 997 on maize seedlings were determined by evaluating germination and seedling growth from excised, mature maize embryos (Green, 1974, Crop Sci. 14: 54-58). Seeds were sterilized for 10 minutes in 0.5% hypochlorite and then imbibed for 24 hours in sterile, distilled water. Mature embryos were aseptically excised and plated on solid MS media […] containing various concentrations of 997 and no 2,4-D. Embryos were placed with their shoot axis away from the media. Shoot growth was quantitated after seven days.

[6] = system: AHAS activity from line UV18; test: AHAS activity assay, line UV18; assay type: biochemical, maize; conditions: 3×10^-6 to 3×10^-4 M 997
Method: (§3) Assays were conducted as a modification of the procedure of Smith et al. (1979, Molec. Gen. Genet. 169: 299-314). Plant cell culture material was ground with sand in a cold mortar and pestle in an equal quantity (w/v) of cell disruption media containing 0.05 M potassium phosphate (pH 7.0), 0.1 mM MgSO4, and 0.5 mM dithiothreitol. The preparation was centrifuged at 11,000×g for 20 minutes and the supernatant assayed for AHAS activity. Assays were conducted in 1 ml volumes containing 0.05 M potassium phosphate (pH 8.0), 40 mM pyruvate, 5 mM MgCl2, 0.1 mM thiamine pyrophosphate, 0.2 ml cell extract, and various concentrations of the herbicide of interest. The reaction mixtures were incubated at 30° C. for 75 minutes and the reaction terminated with the addition of 0.1 ml of 50% (v/v) H2 SO4. Following further incubation at 40° C. for 20 minutes, the acetoin formed from acetolactate by acidification was quantitated using the method of Westerfield (1945, J. Biol. Chem. 161: 495). To 0.2 ml of reaction mixture, 0.8 ml of water, 0.5 ml of 0.5% (w/v) creatine, and 0.5 ml of 5% (w/v) naphthol in 10% (w/v) NaOH was added. After mixing, solutions were incubated at room temperature for one hour. The development of pink color was quantitated by measuring light absorbance at 530 nm. […]

[7] = system: AHAS activity from line QJ22; test: AHAS activity assay, line QJ22; assay type: biochemical, maize; conditions: 3×10^-6 to 3×10^-4 M 997
Method: as §3

[8] = control seedlings, 6×10^-8 M 214, seven days after plating

Row | SMILES | Growth of cells in liquid suspension culture ([1]; 0.03 mg per liter 214, up to 72 hours) | growth rate after washing with herbicide-free media ([1]; after exposure to 0.03 mg per liter 214 up to 72 hours) | shoot growth inhibition at the highest concentration tested ([2]; 3×10^-6 M, seedlings homozygous for the resistance trait) | resistance of XA17 homozygous seedlings ([2]; vs control seedlings) | IC50 ([3]; Zea mays, read-out: concentration inhibiting shoot growth 50%) | average root length [3, 8] | average shoot length [3, 8] | herbicide concentration giving 50% growth inhibition ([1]; suspension cultures, concentration in the media, settled cell volume after six or seven days) | sensitivity of AHAS isozymes I, II and III [4] | herbicide concentration giving 50% growth inhibition [5] | tolerance of AHAS activity vs AHAS from control cultures [6] | tolerance of AHAS activity vs AHAS from control cultures [7]
1 | CC(C)C1(C)NC(c2nc3ccccc3cc2C(=O)O)=NC1=O (stereo not drawn) [compound 214, 2-(5-isopropyl-5-methyl-4-oxo-2-imidazolin-2-yl)3-quinolinecarboxylic acid] | completely inhibited | rapidly return to an uninhibited growth rate | no inhibition | at least 100 fold | 30 nM | 1.1 cm | 1.5 cm | – | – | – | – | –
2 | CC(C)C1(C)NC(c2ncccc2C(=O)O)=NC1=O (stereo not drawn) [compound 997, 2-(5-isopropyl-5-methyl-4-oxo-2-imidazolin-2-yl)nicotinic acid] | – | – | – | – | – | – | – | 1 to 3×10^-8 M | insensitive to millimolar concentrations | 1 to 3×10^-8 M | more tolerant | more tolerant
